Test results reported in patent US20250163056A1, “NONMUSCLE MYOSIN II INHIBITORS” (The University of Florida Research Foundation, Inc., priority 2018, published 2025).

Key:
Bovine cardiac myosin = Bovine cardiac myosin (Bos taurus (Bovine), UniProt Q9BE39); assay: Cardiac muscle myosin II actin-activated ATPase assay (NADH-coupled); assay type: biochemical; design: key to Ratio CMMII:NMII Ki/EC50: NMII-sel: no Ki value for cardiac myosin II could be determined; the compounds had no detectable inhibitory properties versus the cardiac myosin II; conditions: for Ki: 300 nM cardiac myosin, 10 μM actin, 25° C., read-out: CMMII KI; for Ratio CMMII:NMII Ki/EC50: cardiac myosin II Ki over nonmuscle myosin II EC50
Source text: (§1) The cardiac muscle myosin II actin-activated ATPase assay is a biochemical assay. Specifically, it is an NADH (nicotinamide adenine dinucleotide)-coupled ATPase assay that relies on NADH fluorescence as a readout. Cardiac myosin is a mechanochemical energy transducer that hydrolyzes ATP to generate force in the presence of its activator, F-actin. The resulting ADP is regenerated to ATP by pyruvate kinase (PK) that transforms one molecule of phosphoenolpyruvate (PEP) to pyruvate in parallel. Subsequently, pyruvate is reduced to lactate by lactate dehydrogenase (LDH) that, in turn, oxidizes one molecule of NADH to NAD. Therefore, the decrease in NADH concentration as a function of time equals the ATP hydrolysis rate. Bovine cardiac myosin is obtained from a commercial source, Cytoskeleton. PK, LDH, ATP, PEP, and NADH are obtained from Sigma. F-actin is prepared in house from Rabbit Muscle Acetone Powder. The assay is run at 25° C. in 384 well black-wall polystyrene microplates with a total volume of 20 μl per well. NADH fluorescence is monitored for 30 minutes with an EnVision Multimode Plate Reader. The slope of the fluorescence response, which is proportional to the reaction rate, is determined by simple linear regression. Final assay conditions are 300 nM cardiac myosin, 10 μM actin, 40 U/ml LDH, 200 U/ml PK, 220 μM NADH, 1 mM PEP, 1 mM ATP in a buffer containing 10 mM 3-(N-morpholino)propanesulfonic acid (pH=7.0), 2 mM MgCl2, 0.15 mM ethylene glycol-bis(p-aminoethyl ether)-N,N,N′,N′-tetraacetic acid, 0.1 mg/mL bovine serum albumin, 0.5% (V/V) dimethyl sulfoxide (DMSO) and 1 mM dithiothreitol. Prior to testing the inhibitory activity of the compounds, a two-fold dilution series starting at 10 mM compound concentration is prepared in DMSO. Subsequently, 100 nl is transferred to each well of the measuring plate containing a mixture of myosin, LDH and PK. The enzymatic reaction is started with the addition of a mixture containing ATP, PEP, NADH and actin. The highest final compound concentration is 50 uM. 20 μM para-aminoblebbistatin in 0.5% DMSO serves as the positive control and 0.5% DMSO alone is the negative control. Reaction rates are determined by using the fluorescence responses of a dilution series of NADH included in all plates and plotted as a function of inhibitor concentration. All measurements are carried out in triplicate. Inhibitory constants are determined by fitting the 16 point dose-response data to a quadratic equation corresponding to a simple one-to-one binding model.

Rabbit skeletal myosin = assay: Skeletal muscle myosin II actin-activated ATPase assay; assay type: biochemical; conditions: 20 nM skeletal muscle myosin II; read-out: SKMMII KI
Source text: as §1
The skeletal muscle myosin II actin-activated ATPase assay is performed the same as for cardiac muscle myosin II with the following exceptions: Rabbit skeletal myosin is obtained from Cytoskeleton and the final assay conditions contain 20 nM skeletal muscle myosin II.

[1] = Photostability, percentage remaining undegraded under illumination or in the dark; conditions: for Photostability 4 hours: percentage remaining undegraded after 4 hours illumination; for Photostability 24 hours: percentage remaining undegraded after 24 hours illumination; for Photostability Dark (24 h): percentage remaining undegraded in the dark

Chain of Bovine cardiac myosin (Q9BE39 whole entry): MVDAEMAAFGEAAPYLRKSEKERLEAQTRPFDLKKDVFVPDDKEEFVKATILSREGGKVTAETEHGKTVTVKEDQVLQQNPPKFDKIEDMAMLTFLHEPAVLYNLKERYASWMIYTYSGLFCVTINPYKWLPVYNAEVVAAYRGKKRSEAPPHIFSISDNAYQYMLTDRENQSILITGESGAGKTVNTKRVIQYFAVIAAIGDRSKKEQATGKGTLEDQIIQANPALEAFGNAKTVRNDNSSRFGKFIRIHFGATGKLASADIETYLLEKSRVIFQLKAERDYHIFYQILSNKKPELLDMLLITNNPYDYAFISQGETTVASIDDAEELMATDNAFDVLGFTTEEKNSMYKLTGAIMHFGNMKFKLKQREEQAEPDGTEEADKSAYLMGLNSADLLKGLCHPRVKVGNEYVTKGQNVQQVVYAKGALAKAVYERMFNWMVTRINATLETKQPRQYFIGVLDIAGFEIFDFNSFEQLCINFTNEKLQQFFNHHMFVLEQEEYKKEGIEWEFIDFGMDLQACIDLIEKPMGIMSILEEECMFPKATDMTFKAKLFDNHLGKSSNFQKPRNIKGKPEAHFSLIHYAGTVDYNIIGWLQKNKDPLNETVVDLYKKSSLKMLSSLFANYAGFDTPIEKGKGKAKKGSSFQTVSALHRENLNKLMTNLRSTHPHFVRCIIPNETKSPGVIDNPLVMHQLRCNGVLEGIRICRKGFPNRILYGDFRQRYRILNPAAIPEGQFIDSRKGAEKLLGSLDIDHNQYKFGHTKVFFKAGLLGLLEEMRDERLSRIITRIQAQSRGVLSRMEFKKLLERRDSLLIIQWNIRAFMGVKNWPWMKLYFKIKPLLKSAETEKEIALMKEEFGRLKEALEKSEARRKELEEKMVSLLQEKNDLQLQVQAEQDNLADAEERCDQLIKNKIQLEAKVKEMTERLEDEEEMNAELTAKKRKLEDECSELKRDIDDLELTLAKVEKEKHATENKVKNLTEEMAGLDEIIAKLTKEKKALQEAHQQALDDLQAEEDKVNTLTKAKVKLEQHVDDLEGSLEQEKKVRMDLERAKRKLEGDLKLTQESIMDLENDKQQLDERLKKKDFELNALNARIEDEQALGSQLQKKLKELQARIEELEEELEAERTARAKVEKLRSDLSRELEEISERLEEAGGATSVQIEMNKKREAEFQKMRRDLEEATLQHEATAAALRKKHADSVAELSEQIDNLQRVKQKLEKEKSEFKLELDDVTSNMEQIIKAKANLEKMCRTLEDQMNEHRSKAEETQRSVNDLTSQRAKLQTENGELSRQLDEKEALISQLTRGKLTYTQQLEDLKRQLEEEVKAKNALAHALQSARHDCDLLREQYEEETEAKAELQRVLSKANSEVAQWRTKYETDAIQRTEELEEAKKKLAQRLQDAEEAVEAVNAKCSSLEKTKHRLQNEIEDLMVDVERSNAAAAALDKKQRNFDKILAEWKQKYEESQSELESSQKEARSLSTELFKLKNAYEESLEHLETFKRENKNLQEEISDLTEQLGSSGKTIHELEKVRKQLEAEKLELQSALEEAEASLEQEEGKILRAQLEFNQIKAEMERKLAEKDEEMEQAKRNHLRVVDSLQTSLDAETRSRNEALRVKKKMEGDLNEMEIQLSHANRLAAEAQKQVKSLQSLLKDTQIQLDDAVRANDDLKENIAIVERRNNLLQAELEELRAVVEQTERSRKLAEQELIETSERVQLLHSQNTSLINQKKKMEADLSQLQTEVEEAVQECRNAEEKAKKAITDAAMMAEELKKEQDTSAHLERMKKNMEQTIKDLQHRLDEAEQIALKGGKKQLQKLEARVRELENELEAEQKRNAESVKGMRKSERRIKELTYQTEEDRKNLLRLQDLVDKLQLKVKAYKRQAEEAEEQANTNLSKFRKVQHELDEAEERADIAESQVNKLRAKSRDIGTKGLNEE
Chain of Bovine cardiac myosin (P85100 whole entry partner): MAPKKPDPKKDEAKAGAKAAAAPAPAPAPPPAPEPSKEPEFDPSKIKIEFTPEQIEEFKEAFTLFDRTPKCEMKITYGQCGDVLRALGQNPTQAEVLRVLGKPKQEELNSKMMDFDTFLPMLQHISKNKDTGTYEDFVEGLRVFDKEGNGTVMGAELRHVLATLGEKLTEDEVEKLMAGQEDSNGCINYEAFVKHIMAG
Chain of Bovine cardiac myosin (Q3SZE5 whole entry partner): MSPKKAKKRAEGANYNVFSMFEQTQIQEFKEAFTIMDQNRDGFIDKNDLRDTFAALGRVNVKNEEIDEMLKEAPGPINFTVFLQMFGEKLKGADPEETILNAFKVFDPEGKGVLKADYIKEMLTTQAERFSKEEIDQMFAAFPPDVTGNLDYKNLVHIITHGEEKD

Structure (SMILES)	Ki (Bovine cardiac myosin) [µM]	Ratio CMMII:NMII Ki/EC50 (Bovine cardiac myosin)	Ki (Rabbit skeletal myosin) [µM]	Photostability 4 hours [1] [%]	Photostability 24 hours [1] [%]	Photostability Dark (24 h) [1] [%]
Cc1ncc(N2CC[C@@]3(O)C(=O)c4cc(F)c(C(F)(F)F)cc4N=C23)s1 [BPN-0026667]	6.2	5.2	0.33	85.7	2.9	>99
Cc1cc2c(cc1F)C(=O)[C@]1(O)CCN(c3ccccc3)C1=N2 [BPN-0026669]	25	4.7	1.2	87.8	11.2	>99
Cc1ncc(N2CC[C@@]3(O)C(=O)c4cc(C)c(C)cc4N=C23)s1 [BPN-0026693]	3.5	6.0	0.27	34.1	1.7	>99
Cc1cc2c(cc1C)C(=O)[C@]1(O)CCN(c3cccs3)C1=N2 [BPN-0026708]	5.3	3.1	1.4	40.7	<1	>99
COc1cc(N2CC[C@@]3(O)C(=O)c4cc(C)c(C)cc4N=C23)ccn1 [BPN-0026709]	30.6	25.5	1.3	98.7	93.0	98.2
Cc1cc2c(cc1C)C(=O)[C@]1(O)CCN(c3cnn(C)c3)C1=N2 [BPN-0026710]	5.2	3.1	0.95	6.6	<1	>99
Cc1cc2cc(N3CC[C@@]4(O)C(=O)c5cc(F)c(C)cc5N=C34)ccc2o1 [BPN-0026726]	–	NMII-sel	4.4	76.3	24.1	95.4
COc1cc(N2CC[C@@]3(O)C(=O)c4cc(F)c(C)cc4N=C23)ccn1 [BPN-0026745]	73	25.2	2.6	>99	94.2	>99
Cc1cc2c(cc1F)C(=O)[C@]1(O)CCN(c3cnn(C)c3)C1=N2 [BPN-0026746]	17	3.8	3.6	58.8	10.6	>99
Cc1cc2c(cc1F)C(=O)[C@]1(O)CCN(c3cccs3)C1=N2 [BPN-0026748]	14	4.7	2.6	88.2	22.4	>99
CCc1cc2c(s1)N=C1N(c3ccc4ccoc4c3)CC[C@@]1(O)C2=O [BPN-0026749]	–	NMII-sel	23	87.8	<5	>99
CCc1cc2c(s1)N=C1N(c3ccc(Cl)cc3)CC[C@@]1(O)C2=O [BPN-0026770]	–	NMII-sel	1.5	>99	92.9	>99
CCc1cc2c(s1)N=C1N(c3ccc(C)cc3)CC[C@@]1(O)C2=O [BPN-0026774]	8.9	3.4	1.1	86.7	18.1	>99
O=C1c2c(sc3ccccc23)N=C2N(c3ccccc3)CC[C@@]12O [BPN-0026785]	23	3.1	5.9	95.8	59.3	91.6
COc1ccc(N2CC[C@@]3(O)C(=O)c4c(sc(C)c4C)N=C23)cc1 [BPN-0026813]	1.6	3.1	0.11	82.0	<1	>99
Cc1sc2c(c1C)C(=O)[C@]1(O)CCN(c3ccc(Cl)cc3)C1=N2 [BPN-0026815]	2.8	3.6	0.27	91.2	88.2	90.2
Cc1ccc(N2CC[C@@]3(O)C(=O)c4cc(C)c(C(F)(F)F)cc4N=C23)cc1 [BPN-0026819]	50	27.8	1.7	96.6	84.8	97.3
CCc1cc2c(s1)N=C1N(c3ccc(C#N)c(C)c3)CC[C@@]1(O)C2=O [BPN-0026848]	320	12.3	61	>99	98.7	>99
COc1ccc(N2CC[C@@]3(O)C(=O)c4cc(C)c(C(F)(F)F)cc4N=C23)cc1 [BPN-0026849]	16	16.0	0.77	98.5	91.8	>99
Cc1cc2cc(N3CC[C@@]4(O)C(=O)c5cc(C)c(C)cc5N=C34)ccc2o1 [BPN-0026852]	25	9.6	5.6	62.4	3.8	85.1
CCc1cc2c(s1)N=C1N(c3ccc(OC)cc3)CC[C@@]1(O)C2=O [BPN-0026881]	11	6.1	0.8	70.9	1.8	>99
Cc1cc2c(s1)C(=O)[C@]1(O)CCN(c3ccc(C)c(Cl)c3)C1=N2 [BPN-0026882]	21	3.6	4.5	98.8	96.8	>99
Cc1ccc2c(c1)C(=O)[C@]1(O)CCN(c3ccc4ncsc4c3)C1=N2 [BPN-0027036]	22	7.3	4.9	90.2	24.7	97.4
COc1cc(N2CC[C@@]3(O)C(=O)c4cc(C)c(C(F)(F)F)cc4N=C23)ccn1 [BPN-0027037]	–	NMII-sel	18	>99	>99	>99
CCc1cc2c(s1)N=C1N(c3ccc(C#N)cc3)CC[C@@]1(O)C2=O [BPN-0027038]	17	6.3	0.61	>99	98.7	>99
Cc1ccc2c(c1)C(=O)[C@]1(O)CCN(c3ccc4cccnc4c3)C1=N2 [BPN-0027039]	68	3.1	4.6	89.8	31.3	95.9
